# Experimental data: article PMC7595621, “Quorum sensing N-Acyl homoserine lactones are a new class of anti-schistosomal” (PLoS Neglected Tropical Diseases, 2020)
# Tests used:
# [1] = tested on: S. aureus ATCC 29213; experiment: Broth microdilution MIC and IC50 determination, S. aureus; type: cell-based, Staphylococcus aureus; conditions: for MIC: ATCC29213, 24 h
# Procedure: S. aureus ATCC 29213 and E. coli ATCC 25922 were cultured in Luria-Bertani (LB) medium at 37°C with aeration at 200 rpm for 24 hr, with all procedures performed in a biosafety level 2 (BSL2) cabinet. Stationary phase cultures were then used for minimum inhibitory concentration (MIC) determination using the broth microdilution method, in fresh LB medium, in a 96-well plate. All compounds were tested in triplicate using an initial bacterial concentration of 5.0 × 10^5 colony forming units (CFU)/mL at a final concentration of 125 mg/L (5% and 2.5% v/v methanol). Compounds with no visible growth at 125 mg/L were further evaluated with progressing dilutions. […] Dilutions were repeated in three independent experiments where the optical density (OD600) was measured in a Hidex plate spectrophotometer and absorbance data used for the calculation of an IC50 value. The IC50 value was obtained from a dose response titration (125–0.09 mg/L). Dose response curves were obtained by non-linear regression, after log transformation of concentrations and data normalization using GraphPad Prism 7.02.
# As Compound 1 was structurally similar to N-acyl homoserine lactones, a compound class involved in bacterial quorum sensing, we decided to assess its antimicrobial activity and determine if enantiomer separation or lactone ring substitution would change this activity.
# [2] = tested on: adult S. mansoni worm pairs (egg production); experiment: In vitro egg production of adult S. mansoni worm pairs; type: cell-based, Schistosoma mansoni; conditions: 72 hr, compared to DMSO
# Procedure: Adult S. mansoni parasites were recovered by hepatic portal vein perfusion from TO outbred mice (HsdOla:TO, Tuck-Ordinary, Envigo, UK) that were percutaneously infected seven weeks earlier with 180 cercariae. Three adult worm pairs per well, in duplicate, were transferred into 48 well plates (Fisher Scientific, Loughborough, UK) and cultured at 37 °C in an atmosphere containing 5% CO2 in DMEM (Gibco, Paisley, UK) containing 10% v/v HEPES, 10% v/v Foetal Bovine Serum (FBS), 0.7% v/v 200 mM L-Glutamine and 1X v/v penicillin-streptomycin. Worms were dosed with test compounds at 20 μM, 10 μM, 5 μM, 2.5 μM, 1.25 μM and 0.625 μM (in 0.2% DMSO) for 72 hr. Adult worms were scored manually at 72 hr using the WHO-TDR metric scoring system as described previously. Dose response curves and EC50 values were obtained by non-linear regression, after log transformation of concentrations and data normalization using GraphPad Prism 7.02. At 72 hr, the medium from each well was also collected, centrifuged at 350 x g for 2 min. Afterwards, the supernatant was removed, and the remaining egg pellet re-suspended in 10% v/v formalin. Eggs that were oval and contained a fully formed lateral spine were subsequently counted.
# Fig 3 Adult schistosome motility and egg production are differentially affected by the nine N-acyl homoserine lactones. […] Parasite motility was evaluated for each sex and scored using the WHO-TDR scoring system (0 = Dead parasite, 4 = Normal/Healthy movement). B) Culture media were collected from some adult co-cultures at 72 hrs and eggs present in the media were counted. p values are indicated as follows: * <0.05, ** <0.01, *** <0.001.
# As morbidity associated with schistosomiasis is caused by egg-induced granuloma formation in tissues and the subsequent development of fibrotic lesions around these granulomas, compound-mediated modulation of in vitro egg production (as a surrogate for the in vivo pathology initiator) was next assessed (Fig 3B). […] In comparison to the negative control DMSO, in which egg counts ranged from 300–594 (Average—408), all N-Acyl homoserine lactones affected fecundity.
# [3] = tested on: juvenile S. mansoni worms; experiment: Propidium iodide (PI) staining of juvenile S. mansoni worms; type: cell-based, Schistosoma mansoni; conditions: 72 hrs
# Procedure: (§1) Juvenile S. mansoni parasites were recovered via hepatic portal vein perfusion from TO outbred mice (HsdOla:TO, Tuck-Ordinary, Envigo, UK) that were infected percutaneously three weeks earlier with 4000 cercariae. Preparation and centrifugation of juvenile worms have been described previously. […] After motility quantification, 2 μg/mL of PI was added to each well and the plate returned to 37°C, 5% CO2 for 15 minutes. Each well was subsequently imaged on the Roboworm platform using brightfield and fluorescent microscopy (excitation wavelength = 580 nm; emission wavelength = 604 nm). The number of PI positive vs PI negative juvenile worms were cross-checked with the motility scores obtained by our scoring matrix, and the data reported as percentage of PI positive across all parasites within the well. EC50 values were calculated from the motility scores obtained from the dose response titration (as detailed above) and dose response curves were obtained by non-linear regression, after log transformation of concentrations and data normalization using GraphPad Prism 7.02.
# Three week juvenile schistosomes, incubated with compounds (1), (3) or controls for 72 hrs, were subsequently cultured with PI at a final concentration of 2 μg/mL for 15 minutes at 37 °C in an environment containing 5% CO2. PI positive parasites (dead) were counted and the percent live vs dead in each well is indicated. A) Quantification of compound (1) mediated juvenile death. B) Quantification of compound (3) mediated juvenile death.
# [4] = tested on: juvenile S. mansoni worms; experiment: Screening of juvenile S. mansoni blood flukes (3-week worms), motility scoring; type: cell-based, Schistosoma mansoni; conditions: for Selectivity index, juvenile worm: HepG2 CC50 / juvenile worm EC50; for EC50: Schistosoma mansoni, 3-week worms, motility scores, read-out: JUVENILE WORM EC50
# Procedure: as §1
# Fig 4 Three week juvenile worms are immobilised by N-Acyl homoserine lactones. Three-week old juvenile S. mansoni worms (n = 13–33 per well) were co-cultured with compounds (1) and (3) at concentrations spanning 15 μM—0.23 μM for 72 hrs at 37°C in a humidified atmosphere containing 5% CO2. Parasite motility was scored between 0–4 (0 = no movement/dead, 4 = full movement/healthy). […] A) Effect of compound (1) on juvenile worm motility. (B) Effect of compound (3) on juvenile worm motility. p values are indicated as follows: * <0.05, ** <0.01, *** <0.001.
# [5] = tested on: HepG2 cells; experiment: Cell cytotoxicity assay (MTT); type: cell-based, human; conditions: 24 hr
# Procedure: The cytotoxicity of each compound was assessed on human HepG2 cells as described previously [17]. Briefly, 2 x 10^4 cells/well were seeded in black walled 96-well microtiter plates (Fisher Scientific, Loughborough, UK) and incubated for 24 hr at 37°C in a humidified atmosphere containing 5% CO2. […] Following a further incubation for 24 hr, the MTT assay was performed as previously described [17, 27]. Dose response curves were obtained by non-linear regression, after log transformation of concentrations and data normalization using GraphPad Prism 7.02.
# [6] = Staphylococcus aureus, 24 hr, no visible growth
# [7] = Staphylococcus aureus, value in square brackets, 24 hr
SMILES,"MIC [1, 6]","MIC [1, 7]",egg laying significantly reduced down to concentration [2],Percent P.I positive parasites ([3]; 3.75 μM),Percent P.I positive parasites ([3]; 7.5 μM),Percent P.I positive parasites ([3]; 15 μM),significant effect on juvenile worm motility down to ([4]; 72 hr),"Selectivity index, juvenile worm [4]",EC50 ([4]; 72 hr),"S. aureus MIC ([1]; 24 hr, no visible growth)","IC50 ([1]; Staphylococcus aureus, ATCC29213, Table 3, OD600, three independent experiments, 95% confidence interval in parentheses)",effect on egg production (fecundity) [2],100% of the parasites PI positive down to concentration [3],fold increase in HepG2 cytotoxicity in comparison to compound 1 [5],complete immobility of juvenile worms observed down to ([4]; 72 hr)
"O=C(CBr)NC1CCOC1=O (centres unmarked) [Compound 1, 2-bromo-N-(2-oxotetrahydrofuran-3-yl)acetamide]",125 µg/mL,563 µM,10 µM,13.3%,100%,100%,7.5 µM,10.1,4300 nM,,,,,,
"O=C(CBr)NC1CCSC1=O (centres unmarked) [Compound 3, 2-bromo-N-(2-oxotetrahydrothiophen-3-yl)acetamide]",31.2 µg/mL,131 µM,2.5 µM,,,,,37.4,500 nM,31.3 µg/mL,25.9 µg/mL,"still affected at 1.25 μM, this was not statistically significant",0.94 µM,2.3 fold,0.94 µM
